How the values were obtained:
[1] = molecular target: T1, 5‐lipoxygenase (5‐LOX) (Homo sapiens, UniProt P09917); assay: Differential scanning fluorimetry (DSF) screen on 5-LOX; type: binding; details: 100 µM reference compound; measured once as triplicate
T1 construct: made in house; host or cells: E. coli BL21 (DE3)
T1 sequence (P09917 1-674): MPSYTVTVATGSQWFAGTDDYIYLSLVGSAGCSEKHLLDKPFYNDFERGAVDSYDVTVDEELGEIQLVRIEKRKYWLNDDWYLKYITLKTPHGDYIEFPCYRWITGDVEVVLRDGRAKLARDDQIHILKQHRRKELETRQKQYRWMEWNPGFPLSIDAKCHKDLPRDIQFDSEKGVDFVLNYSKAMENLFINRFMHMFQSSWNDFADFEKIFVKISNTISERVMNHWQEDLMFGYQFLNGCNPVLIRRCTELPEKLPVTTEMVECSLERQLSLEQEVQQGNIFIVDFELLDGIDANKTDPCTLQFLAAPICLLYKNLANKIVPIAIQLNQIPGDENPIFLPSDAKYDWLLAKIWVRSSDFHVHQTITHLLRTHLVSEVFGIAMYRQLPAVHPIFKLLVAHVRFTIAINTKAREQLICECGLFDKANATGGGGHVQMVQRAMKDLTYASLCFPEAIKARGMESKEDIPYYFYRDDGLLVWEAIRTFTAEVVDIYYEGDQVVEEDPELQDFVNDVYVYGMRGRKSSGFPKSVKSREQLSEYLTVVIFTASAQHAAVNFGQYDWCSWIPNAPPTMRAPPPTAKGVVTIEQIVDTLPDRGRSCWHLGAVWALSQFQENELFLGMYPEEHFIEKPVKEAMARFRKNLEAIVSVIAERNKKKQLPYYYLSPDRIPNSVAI

[2] = molecular target: T2, leukotriene A4 hydrolase (LTA4H) (Homo sapiens, UniProt P09960); assay: Differential scanning fluorimetry (DSF) screen on LTA4H; type: binding; details: 50 µM reference compound, triplicates repeated 3 times
T2 construct: made in house; host or cells: E. coli BL21 (DE3)
T2 sequence (P09960 1-611): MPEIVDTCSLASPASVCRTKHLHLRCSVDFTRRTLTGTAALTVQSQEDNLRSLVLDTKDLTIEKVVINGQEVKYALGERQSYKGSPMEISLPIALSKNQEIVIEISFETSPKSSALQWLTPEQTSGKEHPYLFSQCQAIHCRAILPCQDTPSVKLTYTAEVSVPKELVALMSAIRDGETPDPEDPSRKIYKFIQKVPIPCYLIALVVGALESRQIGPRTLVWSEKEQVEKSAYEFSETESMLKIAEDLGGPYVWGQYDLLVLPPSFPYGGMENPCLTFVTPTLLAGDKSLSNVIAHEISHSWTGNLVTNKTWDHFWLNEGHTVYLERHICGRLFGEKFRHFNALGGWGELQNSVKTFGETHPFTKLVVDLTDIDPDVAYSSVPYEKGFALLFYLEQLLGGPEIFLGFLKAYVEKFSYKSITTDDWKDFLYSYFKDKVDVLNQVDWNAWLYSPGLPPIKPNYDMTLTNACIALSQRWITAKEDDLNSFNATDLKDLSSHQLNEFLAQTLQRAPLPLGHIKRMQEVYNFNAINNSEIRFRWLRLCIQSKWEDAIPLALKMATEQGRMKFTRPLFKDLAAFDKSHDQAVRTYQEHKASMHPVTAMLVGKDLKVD

[3] = molecular target: T1, 5‐lipoxygenase (5‐LOX); assay: 5-LOX activity assay (HPLC detection of product formation); type: biochemical; details: mean±standard deviation of three independent experiments
Description: (§1) For hit validation, we employed secondary assays with orthogonal readouts to confirm fragment activities. Biochemical activity assays were chosen for the enzymes sEH, LTA4H, and 5‐LOX. […] RXRα and FXR modulation was assessed in cell‐based hybrid reporter gene assays. All ten compounds were tested at a single concentration of 500 μM in the sEH and LTA4H activity assays and with a concentration of 100 μM on 5‐LOX, RXRα, and FXR. Fragments showing an inhibition greater than 50 % (sEH‐H and LTA4H) or greater than 70 % (5‐LOX) as well as the hits determined in the DSF experiments were further characterized in full concentration‐response curves between 0.1 and 1000 μM. […] As alternative cell‐free assay we employed isothermal titration calorimetry (ITC) to determine binding affinity of the fragments towards the LBDs of both nuclear receptors. ITC was performed with a protein concentration of 50 μM and compound concentrations of 250 μM.
(§2) The 10 fragments showing dual activity in the DSF experiments were validated by functional assay screening with a fixed concentration of 500 µM in case of sEH-H and LTA4H, 100 µM in case of 5-LOX and 30 µM, 10 µM and 5 µM in case of FXR and […]
(§3) % (5-LOX) as well as the hits determined in the DSF experiments were further measured with concentrations between 1000 µM and 0.1 µM (sEH-H and LTA4H) and between 300 µM and 1 µM (5-LOX). The sEH and LTA4H activity assays were performed as triplicate and repeated 3 times. The 5-LOX activity assay was performed with one point per concentration and repeated 3 times Raw data was first analyzed in Microsoft Office Excel (2013), before IC50 curves were plotted and further analyzed using GraphPad Prism 7 and GraphPad Prism 8 for the shown graphs .
The eight approved drugs were measured in the orthogonal assay systems analogous to the fragments. […]
For the 5-LOX they […]
were measured as single point measurement in three different experiments with concentrations between 300 µM and 1 µM. For […]
Raw data was processed according to the fragments. […]

[4] = molecular target: T3, soluble epoxide hydrolase (sEH) (Homo sapiens, UniProt P34913); assay: sEH-H activity assay (fluorogenic substrate PHOME); type: biochemical; details: approved drug, 1-1000 µM
T3 construct: made in house; host or cells: E. coli BL21 (DE3)
T3 sequence (P34913 1-555): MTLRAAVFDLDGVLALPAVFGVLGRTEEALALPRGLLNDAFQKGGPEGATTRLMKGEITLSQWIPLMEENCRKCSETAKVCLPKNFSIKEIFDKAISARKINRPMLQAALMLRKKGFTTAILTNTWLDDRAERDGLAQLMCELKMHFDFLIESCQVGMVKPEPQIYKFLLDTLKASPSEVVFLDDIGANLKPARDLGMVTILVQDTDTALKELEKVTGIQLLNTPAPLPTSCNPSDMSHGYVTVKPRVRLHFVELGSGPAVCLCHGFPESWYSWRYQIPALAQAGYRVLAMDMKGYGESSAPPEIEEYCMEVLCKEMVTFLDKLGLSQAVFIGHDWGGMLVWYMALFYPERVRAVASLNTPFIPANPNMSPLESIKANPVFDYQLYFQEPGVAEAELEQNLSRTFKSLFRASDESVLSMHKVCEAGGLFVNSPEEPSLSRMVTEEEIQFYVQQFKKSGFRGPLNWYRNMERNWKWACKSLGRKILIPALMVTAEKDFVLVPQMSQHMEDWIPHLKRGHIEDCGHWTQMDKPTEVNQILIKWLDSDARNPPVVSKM
Description: as §1, §2, §3
The eight approved drugs were measured in the orthogonal assay systems analogous to the fragments. The approved drugs were […]
For the sEH-H and LTA4H, they were measured as triplicate in concentrations between 1000 µM and 1 µM and each measurement was repeated three times. For the 5-LOX they were measured as single point measurement in three different experiments with concentrations between 300 µM and 1 µM. For […]
Raw data was processed according to the fragments.
The sEH-H activity assay was performed adapted from Hahn et al.5 and Lukin et al.6. In short 1 µl of compound dilution in DMSO or pure DMSO (for the positive and negative control) was placed in a black 96-well plate (Thermo Scientific™ Nunc™ F96 MicroWell™ Black Polystyrene Plate) and then 89 µl of protein-mix or buffer mix (without protein as negative control) were added and the mixture was incubated for 30 min at room temperature. 10 µl of 0.6 mM 3-phenyl-cyano(6-methoxy-2-naphthalenyl)methylester-2-oxiraneacetic acid (PHOME) were added to every well. The Plate was measured every minute for 45 min. Final concentration per well was 3 nM sEH-Fl, 0.001 % Triton X-100, 25 mM Bis-tris, 0.1 mg/ml BSA, pH = 7.0, 1.6% DMSO […]

[5] = test system: sEH, LTA4H, 5‐LOX, RXRα, FXR; assay: DSF primary screen, statement over all five proteins; type: binding; details: 500 μM
Text: For the primary screen of this fragment library, we employed differential scanning fluorimetry (DSF, also known as thermal shift). DSF is generally applicable to a large panel of protein targets and provides a robust, low‐cost screening technology for fragment‐based approaches. ^[20] All five proteins of our interest are soluble and were recombinantly expressed in Escherichia coli. We performed an initial fragment screen on all five targets by DSF. The use of a uniform screening method for all targets ensured consistent data and provided the opportunity to identify false positive hits which interfered with the screening technology. The conditions of the DSF assay were optimized for the desired screening and validated with reference compounds (Table S1 in the Supporting Information). Compounds causing a positive thermal shift ΔT m≥1.0 °C were considered as active. […]
The measurements were performed using a iCycler iQ™ Single -Color Real Time PCR device with a heat rate of 1 °C per min, an excitation wavelength of 490 nm and an emission wavelength of 570 nm. The first derivation calculated by MyiQ Op tical Software 1.0 was analyzed using Microsoft Office Excel 2013 by comparing the maxima. […]

[6] = test system: T4, RXRα; assay: Differential scanning fluorimetry (DSF) screen on RXRα; type: binding; details: 50 µM reference compound; measured once as triplicate; no melting curve with DMSO
T4 construct: MBP (N, cleaved yes); poly-N-tag, His8-tag, TEV site (N, cleaved yes); made in house; host or cells: E. coli T7-express with pGro7 (GroEL/ES)

[7] = test system: T5, soluble epoxide hydrolase (sEH); assay: Differential scanning fluorimetry (DSF) screen on sEH; type: binding; details: 50 µM reference compound, triplicates repeated 3 times
T5 construct: For the expression of sEH-H and sEH-Fl transformed E.coli BL21 (DE3) cells were grown in 5052; made in house; host or cells: E. coli BL21 (DE3)

C[C@H](C#Cc1ccc(Cc2ccc(F)cc2)s1)N(O)C(N)=O [atreleuton]
TM(ref) 5-LOX [1]: 63.7 ± 0.6 °C

CC(C)C[C@H](NC(=O)[C@@H](O)[C@H](N)Cc1ccccc1)C(=O)O [bestatin]
TM(ref) LTA4H [2]: 60.7 ± 0.9 °C | ΔTM LTA4H ([2]; in °C): 5.9 ± 0.7

CC(C)COCC(CN(Cc1ccccc1)c1ccccc1)N1CCCC1 (stereo not shown) [Compound 15, bepridil, reference compound]
IC50 [3]: 3.2 µM | activity towards sEH [4]: completely loosing activity

Cc1nc2ccccc2[nH]1 [Compound 24]
activity in the DSF screen [5]: no activity

CC1(C)CCC(C)(C)c2cc(C3(c4ccc(C(=O)O)cc4)OCCO3)ccc21 [SR11237]
TM(ref) RXRα [6]: 59.0 ± 0.0 °C

O=C(NCc1cccnc1)c1ccc(O)cc1 [Compound 22]
activity in the DSF screen [5]: no activity

O=C(Nc1ccc(I)cc1)NC1CCCCC1 [CIU]
TM(ref) sEH-H [7]: 62.2 ± 0.4 °C | ΔTM sEH-H ([7]; in °C): 5.6 ± 0.5

Source: publication PMC8049054, “Systematic Assessment of Fragment Identification for Multitarget Drug Design” (Chemmedchem, 2021)
